Measured values published in US9006450B2 (Boehringer Ingelheim International GmbH, priority 2010, dated 2015).

Target: T1, human ACC2 (Homo sapiens, UniProt O00763)
T1 construct: made in house; host or cells: insect cells (baculoviral expression system)
Experiment: ACC2 assay, spectrophotometric 384 well assay (NADH-linked, coupled lactate dehydrogenase/pyruvate kinase)
Format: biochemical
Settings: ACC2 assay, hACC2 construct lacking 128 N-terminal amino acids, 25° C., 340 nm; read-out: IC50
Procedure, shortened: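 ADP output tracked via pyruvate kinase/lactate dehydrogenase NADH oxidation, slope at 340 nm over 15 min, 25° C, with 500 μM ATP and 200 μM each acetyl-CoA and NADH. Enzyme: insect-cell-expressed human ACC2, N-terminal 128 residues deleted; pH 7.5 Tris with citrate, KHCO3. IC50 from four-parameter regression versus vehicle and no-acetyl-CoA controls.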

T1 sequence (O00763 129-2458 limits assumed): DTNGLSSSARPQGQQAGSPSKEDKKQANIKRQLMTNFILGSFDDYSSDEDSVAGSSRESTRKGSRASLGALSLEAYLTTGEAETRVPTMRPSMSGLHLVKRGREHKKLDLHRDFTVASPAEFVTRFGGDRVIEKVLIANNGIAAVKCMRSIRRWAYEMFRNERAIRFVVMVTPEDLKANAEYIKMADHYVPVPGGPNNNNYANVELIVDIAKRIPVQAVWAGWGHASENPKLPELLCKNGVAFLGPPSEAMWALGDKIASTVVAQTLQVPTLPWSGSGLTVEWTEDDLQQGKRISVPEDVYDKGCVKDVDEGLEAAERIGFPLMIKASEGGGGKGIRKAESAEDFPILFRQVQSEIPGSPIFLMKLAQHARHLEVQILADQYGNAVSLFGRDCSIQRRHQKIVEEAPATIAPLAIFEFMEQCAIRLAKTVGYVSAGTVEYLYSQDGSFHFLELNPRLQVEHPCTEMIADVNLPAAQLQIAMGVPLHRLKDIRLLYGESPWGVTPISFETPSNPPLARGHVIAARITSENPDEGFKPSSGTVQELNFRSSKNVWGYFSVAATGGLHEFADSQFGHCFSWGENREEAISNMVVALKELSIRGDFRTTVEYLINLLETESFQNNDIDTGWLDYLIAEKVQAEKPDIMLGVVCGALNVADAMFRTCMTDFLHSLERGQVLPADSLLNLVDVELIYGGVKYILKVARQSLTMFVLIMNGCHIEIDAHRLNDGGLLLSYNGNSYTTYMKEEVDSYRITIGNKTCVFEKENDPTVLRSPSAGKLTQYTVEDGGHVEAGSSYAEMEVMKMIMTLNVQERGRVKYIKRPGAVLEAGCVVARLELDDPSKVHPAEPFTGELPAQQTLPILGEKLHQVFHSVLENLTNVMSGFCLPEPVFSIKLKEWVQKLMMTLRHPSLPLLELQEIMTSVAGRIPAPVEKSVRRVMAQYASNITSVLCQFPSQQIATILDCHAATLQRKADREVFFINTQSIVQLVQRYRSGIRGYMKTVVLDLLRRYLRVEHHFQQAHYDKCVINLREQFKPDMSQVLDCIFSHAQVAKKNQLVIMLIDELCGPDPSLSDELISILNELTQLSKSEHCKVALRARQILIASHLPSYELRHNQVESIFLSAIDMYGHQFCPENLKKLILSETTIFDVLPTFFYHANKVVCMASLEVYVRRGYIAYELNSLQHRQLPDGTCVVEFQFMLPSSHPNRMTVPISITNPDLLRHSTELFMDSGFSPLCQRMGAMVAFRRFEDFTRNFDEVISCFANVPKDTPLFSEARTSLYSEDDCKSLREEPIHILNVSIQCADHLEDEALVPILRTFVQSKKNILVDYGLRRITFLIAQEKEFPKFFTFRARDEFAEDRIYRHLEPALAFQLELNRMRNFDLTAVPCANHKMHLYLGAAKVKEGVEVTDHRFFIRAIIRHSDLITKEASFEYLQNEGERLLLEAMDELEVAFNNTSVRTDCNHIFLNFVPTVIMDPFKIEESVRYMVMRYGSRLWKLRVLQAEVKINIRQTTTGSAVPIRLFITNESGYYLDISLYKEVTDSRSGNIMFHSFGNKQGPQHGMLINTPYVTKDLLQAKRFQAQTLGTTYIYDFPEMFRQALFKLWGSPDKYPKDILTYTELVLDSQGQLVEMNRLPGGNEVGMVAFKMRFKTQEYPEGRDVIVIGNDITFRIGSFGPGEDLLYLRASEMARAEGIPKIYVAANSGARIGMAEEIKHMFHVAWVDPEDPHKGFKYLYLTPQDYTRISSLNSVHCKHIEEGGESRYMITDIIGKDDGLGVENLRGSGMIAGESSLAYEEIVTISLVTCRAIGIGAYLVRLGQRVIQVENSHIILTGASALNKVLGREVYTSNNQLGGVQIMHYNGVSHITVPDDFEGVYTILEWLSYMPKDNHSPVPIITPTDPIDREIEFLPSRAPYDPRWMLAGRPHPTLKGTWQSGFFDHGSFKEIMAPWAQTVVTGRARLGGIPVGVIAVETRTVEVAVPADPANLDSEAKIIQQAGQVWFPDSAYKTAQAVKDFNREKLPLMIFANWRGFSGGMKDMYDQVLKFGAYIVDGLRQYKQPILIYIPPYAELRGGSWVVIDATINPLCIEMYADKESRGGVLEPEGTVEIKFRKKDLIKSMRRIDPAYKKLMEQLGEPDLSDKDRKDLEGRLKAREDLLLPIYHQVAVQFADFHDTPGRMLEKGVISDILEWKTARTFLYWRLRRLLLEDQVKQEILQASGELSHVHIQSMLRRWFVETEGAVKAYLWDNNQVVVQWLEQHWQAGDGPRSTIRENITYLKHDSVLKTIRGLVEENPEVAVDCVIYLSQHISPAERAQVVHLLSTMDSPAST

Structure (SMILES)	IC50
CC(=O)N[C@@H](C)c1ccc(C2CCN(c3ncc(C(=O)N4CCN(C)CC4)cn3)CC2)cc1 [Example 18.52]	13.6 µM
CC(=O)N[C@@H](C)c1ccc(C2CCN(c3ncc(C(=O)N4CCN(C(C)=O)CC4)cn3)CC2)cc1 [Example 18.53]	15.1 µM
CC(=O)N[C@@H](C)c1ccc(C2CCN(c3ncc(C(=O)N4CCCC4)cn3)CC2)cc1 [Example 18.54]	2.1 µM
COCCNC(=O)c1cnc(N2CCC(c3ccc([C@H](C)NC(C)=O)cc3)CC2)nc1 [Example 18.55]	8.8 µM
CC(=O)N[C@@H](C)c1ccc(C2CCN(c3ncc(C(=O)NCCC4CCCN4C)cn3)CC2)cc1 (stereo partly shown) [Example 18.56]	14.9 µM
CC(=O)N[C@@H](C)c1ccc(C2CCN(c3ncc(C(=O)NCC4CCCO4)cn3)CC2)cc1 (stereo partly shown) [Example 18.57]	22.4 µM
CNCCNC(=O)c1cnc(N2CCC(c3ccc([C@H](C)NC(C)=O)cc3)CC2)nc1 [Example 18.58]	18.1 µM
CC(=O)N[C@@H](C)c1ccc(C2CCN(c3ncc(C(=O)NCCN4CCCCC4)cn3)CC2)cc1 [Example 18.59]	18.5 µM
CC(=O)N[C@@H](C)c1ccc(C2CCN(c3ncc(C(=O)NCC4CCNCC4)cn3)CC2)cc1 [Example 18.60]	15.5 µM
CC(=O)N[C@@H](C)c1ccc(C2CCN(c3ncc(C(=O)N4CCC(C(N)=O)CC4)cn3)CC2)cc1 [Example 18.61]	18.9 µM
CC(=O)N[C@@H](C)c1ccc(C2CCN(c3ncc(C(=O)NCC4CCN(Cc5ccccc5)C4)cn3)CC2)cc1 (stereo partly shown) [Example 18.62]	11.8 µM
CC(=O)N[C@@H](C)c1ccc(C2CCN(c3ncc(C(=O)NCC(O)C(F)(F)F)cn3)CC2)cc1 (stereo partly shown) [Example 18.63]	23.1 µM
CC(=O)N[C@@H](C)c1ccc(C2CCN(c3ncc(C(=O)NCCS(C)(=O)=O)cn3)CC2)cc1 [Example 18.64]	25.4 µM
CC(=O)N[C@@H](C)c1ccc(C2CCN(c3ncc(C(=O)NCC4CCCCN4)cn3)CC2)cc1 (stereo partly shown) [Example 18.65]	10.2 µM
CC(=O)N[C@@H](C)c1ccc(C2CCN(c3ncc(C(=O)NCCC(=O)N(C)C)cn3)CC2)cc1 [Example 18.66]	15.8 µM
CC(=O)N[C@@H](C)c1ccc(C2CCN(c3ncc(C(=O)NCC4CCN(c5ccccc5)C4)cn3)CC2)cc1 (stereo partly shown) [Example 18.67]	23.7 µM
CC(=O)N[C@@H](C)c1ccc(C2CCN(c3ncc(C(=O)N(C)CC4(C)COC4)cn3)CC2)cc1 [Example 18.68]	19 µM
CC(=O)N[C@@H](C)c1ccc(C2CCN(c3ncc(C(=O)N(C)C4CCS(=O)(=O)C4)cn3)CC2)cc1 (stereo partly shown) [Example 18.69]	20.8 µM
CC(=O)N[C@@H](C)c1ccc(C2CCN(c3ncc(C(=O)NC4(C#N)CC4)cn3)CC2)cc1 [Example 18.70]	17.4 µM
CC(=O)N[C@@H](C)c1ccc(C2CCN(c3ncc(C(=O)N4CCC(C#N)CC4)cn3)CC2)cc1 [Example 18.71]	14.8 µM
CNC(=O)CNC(=O)c1cnc(N2CCC(c3ccc([C@H](C)NC(C)=O)cc3)CC2)nc1 [Example 18.72]	8.9 µM
CC(=O)N[C@@H](C)c1ccc(C2CCN(c3ncc(C(=O)NCCn4ccnc4)cn3)CC2)cc1 [Example 18.73]	17.9 µM
CC(=O)N[C@@H](C)c1ccc(C2CCN(c3ncc(C(=O)N[C@H]4C[C@H](N)C4)cn3)CC2)cc1 [Example 18.74]	24.5 µM
CC(=O)N[C@@H](C)c1ccc(C2CCN(c3ncc(C(=O)NCCC(C)O)cn3)CC2)cc1 (stereo partly shown) [Example 18.75]	17.8 µM
CC(=O)N[C@@H](C)c1ccc(C2CCN(c3ncc(C(=O)N4CCC4)cn3)CC2)cc1 [Example 18.76]	4 µM
CC(=O)N[C@@H](C)c1ccc(C2CCN(c3ncc(C(=O)NCC4CC4)cn3)CC2)cc1 [Example 18.77]	1.7 µM

Structure (SMILES)	IC50
CC(=O)N[C@@H](C)c1ccc(C2CCN(c3ncc(C(=O)Nc4cc(C)on4)cn3)CC2)cc1 [Example 18.78]	12.7 µM
CC(=O)N[C@@H](C)c1ccc(C2CCN(c3ncc(C(=O)NC4CCNCC4)cn3)CC2)cc1 [Example 18.79]	16.7 µM
CC(=O)N[C@@H](C)c1ccc(C2CCN(c3ncc(C(=O)NCCC#N)cn3)CC2)cc1 [Example 18.80]	27.2 µM
CC(=O)N[C@@H](C)c1ccc(C2CCN(c3ncc(C(=O)NC4CCN(C)C4)cn3)CC2)cc1 (stereo partly shown) [Example 18.81]	16.5 µM
CC(=O)N[C@@H](C)c1ccc(C2CCN(c3ncc(C(=O)NCCC(N)=O)cn3)CC2)cc1 [Example 18.82]	6.2 µM
CC(=O)N[C@@H](C)c1ccc(C2CCN(c3ncc(C(=O)NCC4OCCO4)cn3)CC2)cc1 [Example 18.83]	8.7 µM
CC(=O)N[C@@H](C)c1ccc(C2CCN(c3ncc(C(=O)N(C)C4CCN(C)C4)cn3)CC2)cc1 (stereo partly shown) [Example 18.84]	18.1 µM
CC(=O)N[C@@H](C)c1ccc(C2CCN(c3ncc(C(=O)Nc4ccc(CN(C)C)cc4)cn3)CC2)cc1 [Example 18.86]	11.3 µM
CC(=O)N[C@@H](C)c1ccc(C2CCN(c3ncc(C(=O)N4CCCC4CN(C)C)cn3)CC2)cc1 (stereo partly shown) [Example 18.88]	16.6 µM
CC(=O)N[C@@H](C)c1ccc(C2CCN(c3ncc(C(=O)N(C)c4ccccc4)cn3)CC2)cc1 [Example 18.89]	1.2 µM
CCNC(=O)c1cnc(N2CCC(c3ccc([C@H](C)NC(C)=O)cc3)CC2)nc1 [Example 18.90]	1.2 µM
CCN(CC)C(=O)c1cnc(N2CCC(c3ccc([C@H](C)NC(C)=O)cc3)CC2)nc1 [Example 18.91]	0.91 µM
CC(=O)N[C@@H](C)c1ccc(C2CCN(c3ncc(C(=O)NCc4ccccc4)cn3)CC2)cc1 [Example 18.92]	2.2 µM
CC(=O)N[C@@H](C)c1ccc(C2CCN(c3ncc(C(=O)N(C)Cc4ccccc4)cn3)CC2)cc1 [Example 18.93]	0.8 µM
CC(=O)N[C@@H](C)c1ccc(C2CCN(c3ncc(C(=O)N4CCOCC4)cn3)CC2)cc1 [Example 18.94]	2.2 µM
CC(=O)N[C@@H](C)c1ccc(C2CCN(c3ncc(C(=O)Nc4ccccc4)cn3)CC2)cc1 [Example 18.95]	0.19 µM
CC(=O)N[C@@H](C)c1ccc(C2CCN(c3ccnc(OCC(C)C)c3)CC2)cc1 [Example 19.1, (S)—N-{1-[4-(2′-Isobutoxy-3,4,5,6-tetrahydro-2H-[1,4′]bipyridinyl-4-yl)-phenyl]-ethyl}-acetamide]	0.11 µM
CC(=O)N[C@@H](C)c1ccc(C2CCN(c3ccnc(OC4CCC4)c3)CC2)cc1 [Example 19.2]	0.04 µM
COCCOc1cc(N2CCC(c3ccc([C@H](C)NC(C)=O)cc3)CC2)ccn1 [Example 19.3]	0.7 µM
CC(=O)N[C@@H](C)c1ccc(C2CCN(c3ccnc(OC4CCCC4)c3)CC2)cc1 [Example 19.4]	0.07 µM
CC(=O)N[C@@H](C)c1ccc(C2CCN(c3ccnc(OCC(C)(C)C)c3)CC2)cc1 [Example 19.5]	0.08 µM
CC(=O)N[C@@H](C)c1ccc(C2CCN(c3ccnc(OC4CCCCC4)c3)CC2)cc1 [Example 19.6]	0.08 µM
CC(=O)N[C@@H](C)c1ccc(C2CCN(c3ccnc(OC(C)c4ccccc4)c3)CC2)cc1 (stereo partly shown) [Example 19.7]	0.59 µM
COc1cccc(COc2cc(N3CCC(c4ccc([C@H](C)NC(C)=O)cc4)CC3)ccn2)c1 [Example 19.8]	1.5 µM
CC(=O)N[C@@H](C)c1ccc(C2CCN(c3ccnc(OCCc4ccccc4)c3)CC2)cc1 [Example 19.9]	1.3 µM
CC(=O)N[C@@H](C)c1ccc(C2CCN(c3ccnc(OCC4CC4)c3)CC2)cc1 [Example 19.10]	0.1 µM
